The text below walks through data of US11191870B2, “Gel of sodium hyaluronate cross-linked by polyethylene glycol epoxy derivative for injection and preparation method thereof” (JENKEM TECHNOLOGY CO., LTD. (BEIJING), priority 2016, dated 2021).

In data set [1] the test system is cells L929. The data set is described as follows: Cytotoxicity experiment, extraction method, relative growth rate of cells. Particulars: absorbance, higher RCR = lower toxicity, crosslinker compounds.
Data set [2] deals with cells L929. The data set can be described thus: Median inhibitory concentration (IC50) of crosslinker compounds in cells L929. It is filed as cell-based. Particulars: Mus musculus, L929, read-out: IC50 (median inhibitory concentration). On the procedure:
A cytotoxicity experiment is achieved through detecting the propagation rate of cells referring to standards for biological evaluation-in vitro cell toxicity test of medical instruments. In the experiment, an extraction method is adopted, a cell toxicity test is performed by adopting cells L929, a relative growth rate (RCR) of the cells is calculated through assaying the absorbance value by using an enzyme-linked immunoassay instrument, and the higher the RCR, the better the biocompatibility and the lower the toxicity.

On to `C(COCCOCC1CO1)OCCOCCOCC1CO1` (stereo not drawn) [Ia, tetraethylene glycol diglycidyl ether], for which, in the data set on cells L929 [1], the “RCR (relative growth rate of the cells), polyglycol diglycidyl ether crosslinkers” value (“RCR (relative growth rate of the cells)” for short) is 62%. Also, the IC50 in the data set with cells L929 [2] stood at 127 µM.

As to `C(COCCOCCOCCOCCOCCOCC1CO1)OCCOCCOCCOCCOCCOCCOCC1CO1` (stereo not drawn) [Ib, dodecaethylene glycol diglycidyl ether], the “RCR (relative growth rate of the cells)” value in the data set on cells L929 [1] amounted to 89%. In addition, in the data set on cells L929 [2], the IC50 was found to be 2300 µM.

As to `C(COCCOCCOCCOCCOCCOCCOCCOCCOCCOCCOCCOCC1CO1)OCCOCCOCCOCCOCCOCCOCCOCCOCCOCCOCCOCCOCC1CO1` (stereo not drawn) [Ic, tetracosaethylene glycol diglycidyl ether], the “RCR (relative growth rate of the cells)” value with cells L929 [1] is listed as 89%. The IC50 in the data set with cells L929 [2] stood at 1880 µM.
